A word on the EC90: it is the concentration needed for an effect of 90%.

This experiment relates to HCV replicon cells. The experiment is described as follows: Cell-based HCV replicon assay (replicon RNA level by real time PCR, Taqman). To be noted: Hepatitis C virus, 72 h, HCV replicon cells, replicon RNA level by real time PCR (Taqman), harvested on day 3; calculated EC90 reported as range class; read-out: EC90 (μM) range. In short, it runs like this:
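Readout: ΔCT between NS5B replicon RNA and GAPDH by real-time RT-PCR in lysates harvested on day 3, fitted sigmoidally; EC50 at ΔCT=1, EC90 at ΔCT=3.2. Compounds tested at ten 2-fold dilutions from 25 μM to 1 μM start, 10% FBS, 0.5% DMSO.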
In the case of `COc1cnccc1Nc1nc(C)c(-c2nc3ccccc3s2)c(N[C@@H]2C[C@H](CO)[C@@H](O)[C@H]2O)n1` [Example 1131], the EC90 is over 5 µM.

In the case of `Cc1nc(NCC2CC2)nc(O[C@@H]2C[C@H](CO)[C@@H](O)[C@H]2O)c1-c1nc2ccccc2s1` [Example 1132], the EC90 was over 5 µM. In the case of `Cc1nc(NCC(F)(F)F)nc(N[C@@H]2C[C@H](COC(=O)[C@@H](N)C(C)C)[C@@H](O)[C@H]2O)c1-c1nc2ccccc2s1` [Example 1133] it was 0.5 to 5 µM. For `Cc1cc2sc(-c3c(C)nc(NCC4CC4)nc3N[C@@H]3C[C@H](CO)[C@@H](O)[C@H]3O)nc2c(C)n1` [Example 1134], the EC90 was under 0.5 µM. `Cc1cc2sc(-c3c(C)nc(NCC(F)(F)F)nc3N[C@@H]3C[C@H](CO)[C@@H](O)[C@H]3O)nc2c(C)n1` [Example 1135]: the EC90 was under 0.5 µM. Turning to `Cc1nc(NCC2CC2)nc(N[C@@H]2C[C@H](CO)[C@@H](S(C)(=O)=O)[C@H]2O)c1-c1nc2ccccc2s1` [Example 1136], the EC90 is 0.5 to 5 µM. `Cc1cc2sc(-c3c(C)nc(N[C@@H](C)c4ccc(OC(F)(F)F)cc4)nc3N[C@@H]3C[C@H](CO)[C@@H](O)[C@H]3O)nc2c(C)n1` [Example 1137]: the EC90 is under 0.5 µM. To `COc1cc2cc(-c3c(C)nc(NCC(C)(C)C)nc3N[C@@H]3C[C@H](CO)[C@@H](O)[C@H]3O)oc2c(C)n1` [Example 1201] belongs 0.5 to 5 µM; to `Cc1nc(NC(C)c2ccccn2)nc(N[C@@H]2C[C@H](CO)[C@@H](O)[C@H]2O)c1-c1nc2ccccc2s1` (stereo partly drawn) [Example 1202], 0.5 to 5 µM. For the compound `Cc1nc(NCc2ccc3c(c2)OCO3)nc(N[C@@H]2C[C@H](CO)[C@@H](O)[C@H]2O)c1-c1nc2ccccc2s1` [Example 1203], the EC90 was 0.5 to 5 µM. As to `Cc1cnc(CNc2nc(C)c(-c3nc4ccccc4s3)c(N[C@@H]3C[C@H](CO)[C@@H](O)[C@H]3O)n2)s1` [Example 1204], the EC90 was under 0.5 µM. For the compound `COc1ccc(CNc2nc(C)c(-c3nc4ccccc4s3)c(N[C@@H]3CC[C@@H](O)[C@H]3O)n2)cc1OC` [Example 1205], the EC90 is 0.5 to 5 µM. Take `COc1cc(CNc2nc(C)c(-c3nc4ccccc4s3)c(N[C@@H]3CC[C@@H](O)[C@H]3O)n2)cc(OC)c1` [Example 1206]: the EC90 is 0.5 to 5 µM.

In the case of `COc1ccccc1CNc1nc(C)c(-c2nc3ccccc3s2)c(N[C@@H]2C[C@H](CO)[C@@H](O)[C@H]2O)n1` [Example 1207], the EC90 is 0.5 to 5 µM. On to `Cc1cccc(CNc2nc(C)c(-c3nc4ccccc4s3)c(N[C@@H]3C[C@H](CO)[C@@H](O)[C@H]3O)n2)n1` [Example 1208], for which the EC90 is 0.5 to 5 µM. To `COc1cc(OC)cc(C(C)Nc2nc(C)c(-c3nc4ccccc4s3)c(N[C@@H]3C[C@H](CO)[C@@H](O)[C@H]3O)n2)c1` (stereo partly drawn) [Example 1209] belongs 0.5 to 5 µM; to `COc1cc(COc2nc(C)c(-c3nc4ccccc4s3)c(N[C@@H]3C[C@H](CO)[C@@H](O)[C@H]3O)n2)cc(OC)c1` [Example 1210], over 5 µM; to `COc1cc(OC)cc(Oc2nc(C)c(-c3nc4ccccc4s3)c(N[C@@H]3C[C@H](CO)[C@@H](O)[C@H]3O)n2)c1` [Example 1211], over 5 µM. In the case of `Cc1nc(NCc2cccc(O)c2)nc(N[C@@H]2C[C@H](CO)[C@@H](O)[C@H]2O)c1-c1nc2ccccc2s1` [Example 1212] it was under 0.5 µM; in that of `Cc1nc(NCC(C)(C)C)nc(N[C@@H]2CC[C@@H](O)[C@H]2O)c1-c1nc2cnccc2s1` [Example 1213], over 5 µM; in that of `Cc1nc(NCc2cccs2)nc(N[C@@H]2CC[C@@H](O)[C@H]2O)c1-c1nc2cnccc2s1` [Example 1214], under 0.5 µM.

Regarding `Cc1nc(NCc2ccco2)nc(N[C@@H]2C[C@H](CO)[C@@H](O)[C@H]2O)c1-c1nc2cnccc2s1` [Example 1215], the EC90 is under 0.5 µM. `Cc1nc(Nc2ccccc2)nc(N[C@@H]2C[C@H](CO)[C@@H](O)[C@H]2O)c1-c1nc2cnccc2s1` [Example 1216]: the EC90 was 0.5 to 5 µM. Regarding `Cc1nc(N(C)c2ccccc2)nc(N[C@@H]2C[C@H](CO)[C@@H](O)[C@H]2O)c1-c1nc2cnccc2s1` [Example 1217], the EC90 was over 5 µM. Consider `COC(=O)c1cccc(CNc2nc(C)c(-c3nc4ccccc4s3)c(N[C@@H]3C[C@H](CO)[C@@H](O)[C@H]3O)n2)c1` [Example 1218], for which the EC90 was 0.5 to 5 µM. In the case of `Cc1nc(NCc2cccc(C(=O)O)c2)nc(N[C@@H]2C[C@H](CO)[C@@H](O)[C@H]2O)c1-c1nc2ccccc2s1` [Example 1219] it was over 5 µM; in that of `Cc1nc(NCc2ccccc2O)nc(N[C@@H]2C[C@H](CO)[C@@H](O)[C@H]2O)c1-c1nc2ccccc2s1` [Example 1220], under 0.5 µM. In the case of `COc1ccc(Nc2nc(C)c(-c3nc4ccccc4s3)c(N[C@@H]3C[C@H](CO)[C@@H](O)[C@H]3O)n2)cc1` [Example 1221], the EC90 was 0.5 to 5 µM.

Take `Cc1nc(Nc2cc[nH]n2)nc(N[C@@H]2C[C@H](CO)[C@@H](O)[C@H]2O)c1-c1nc2ccccc2s1` [Example 1222]: the EC90 was over 5 µM. For the compound `Cc1nc(NCC(C)(C)C)nc(N2CCC[C@H]2CO)c1-c1nc2ccccc2s1` [Example 1223], the EC90 was over 5 µM.

`Cc1nc(NCc2cccs2)nc(N2CCC[C@H]2CO)c1-c1nc2ccccc2s1` [Example 1224]: the EC90 is over 5 µM. In the case of `Cc1nc(NCc2cccc(S(C)(=O)=O)c2)nc(N[C@@H]2C[C@H](CO)[C@@H](O)[C@H]2O)c1-c1nc2ccccc2s1` [Example 1225] it was 0.5 to 5 µM; in that of `Cc1nc(Nc2ncco2)nc(N[C@@H]2C[C@H](CO)[C@@H](O)[C@H]2O)c1-c1nc2ccccc2s1` [Example 1226], over 5 µM. To `Cc1nc(NC(C)(C)c2ccccc2)nc(N[C@@H]2C[C@H](CO)[C@@H](O)[C@H]2O)c1-c1nc2ccccc2s1` [Example 1228] belongs 0.5 to 5 µM; to `Cc1nc(NC(C)(C)c2ccccc2)nc(N[C@@H]2C[C@H](CO)[C@@H](O)[C@H]2O)c1-c1nc2cnccc2s1` [Example 1229], 0.5 to 5 µM; to `COc1cc(Nc2nc(C)c(-c3nc4ccccc4s3)c(N[C@@H]3C[C@H](CO)[C@@H](O)[C@H]3O)n2)cc(OC)c1` [Example 1230], over 5 µM. On to `Cc1nc(Nc2cccc(OCc3ccccc3)c2)nc(N[C@@H]2C[C@H](CO)[C@@H](O)[C@H]2O)c1-c1nc2ccccc2s1` [Example 1231], for which the EC90 was 0.5 to 5 µM.

As to `Cc1nc(NC2(c3ccccc3)CC2)nc(N[C@@H]2C[C@H](CO)[C@@H](O)[C@H]2O)c1-c1nc2ccccc2s1` [Example 1232], the EC90 was 0.5 to 5 µM. In the case of `COc1cccc(C)c1Nc1nc(C)c(-c2nc3ccccc3s2)c(N[C@@H]2C[C@H](CO)[C@@H](O)[C@H]2O)n1` [Example 1233] it was 0.5 to 5 µM; in that of `Cc1ccc([C@@H](C)Nc2nc(C)c(-c3nc4ccccc4s3)c(N[C@@H]3C[C@H](CO)[C@@H](O)[C@H]3O)n2)cc1` [Example 1234], over 5 µM; in that of `COc1ccc(Nc2nc(C)c(-c3nc4ccccc4s3)c(N[C@@H]3C[C@H](CO)[C@@H](O)[C@H]3O)n2)c(OC)c1` [Example 1235], 0.5 to 5 µM.

Take `Cc1nc(Nc2ccccc2OC(F)(F)F)nc(N[C@@H]2C[C@H](CO)[C@@H](O)[C@H]2O)c1-c1nc2ccccc2s1` [Example 1236]: the EC90 was over 5 µM. For the compound `Cc1nc(Nc2cccc(OC(F)(F)F)c2)nc(N[C@@H]2C[C@H](CO)[C@@H](O)[C@H]2O)c1-c1nc2ccccc2s1` [Example 1237], the EC90 was over 5 µM. On to `CCOc1nc(C)cc2cc(-c3c(C)nc(NCC4CC4)nc3N[C@@H]3C[C@H](CO)[C@@H](O)[C@H]3O)oc12` [Example 1238], for which the EC90 was 0.5 to 5 µM. Regarding `COc1nc(C)cc2cc(-c3c(C)nc(NCC4CC4)nc3N[C@@H]3C[C@H](CO)[C@@H](O)[C@H]3O)oc12` [Example 1239], the EC90 is 0.5 to 5 µM. Regarding `Cc1nc(NCC2CC2)nc(N[C@@H]2C[C@H](CO)[C@@H](O)C2)c1-c1nc2ccccc2s1` [Example 1240], the EC90 was 0.5 to 5 µM. To `COc1cc(CNc2nc(C)c(-c3nc4ccccc4s3)c(N[C@@H]3C[C@H](CO)[C@@H](O)C3)n2)cc(OC)c1` [Example 1241] belongs under 0.5 µM. As to `Cc1nc(NCC(C)(F)F)nc(N[C@@H]2C[C@H](CO)[C@@H](O)[C@H]2O)c1-c1nc2ccccc2s1` [Example 1242], the EC90 was 0.5 to 5 µM. Consider `Cc1nc(NCC(C)(C)F)nc(N[C@@H]2C[C@H](CO)[C@@H](O)[C@H]2O)c1-c1nc2ccccc2s1` [Example 1243], for which the EC90 is 0.5 to 5 µM. Turning to `[2H]C([2H])(Nc1nc(C)c(-c2nc3ccccc3s2)c(N[C@@H]2C[C@H](CO)[C@@H](O)[C@H]2O)n1)c1cc(OC)cc(OC)c1` [Example 1244], the EC90 was under 0.5 µM. Take `[2H]C([2H])(Nc1nc(C)c(-c2nc3ccccc3s2)c(N[C@@H]2C[C@H](CO)[C@@H](O)[C@H]2O)n1)c1ccccc1` [Example 1245]: the EC90 was under 0.5 µM. To `CCOc1nc(C)cc2cc(-c3c(C)nc(NCC(F)(F)F)nc3N[C@@H]3C[C@H](CO)[C@@H](O)[C@H]3O)oc12` [Example 1246] belongs under 0.5 µM; to `Cc1cc2cc(-c3c(C)nc(NCC(F)(F)F)nc3N[C@@H]3C[C@H](CO)[C@@H](O)[C@H]3O)oc2c(OC(C)C)n1` [Example 1247], under 0.5 µM.

`CCOc1nc(C)cc2cc(-c3c(C)nc(NCc4cc(OC)cc(OC)c4)nc3N[C@@H]3C[C@H](CO)[C@@H](O)[C@H]3O)oc12` [Example 1248]: the EC90 was 0.5 to 5 µM.

Turning to `CCOc1nc(C)cc2cc(-c3c(C)nc(NC(C)c4ccc(C)cc4)nc3N[C@@H]3C[C@H](CO)[C@@H](O)[C@H]3O)oc12` (stereo partly drawn) [Example 1249], the EC90 is 0.5 to 5 µM.

Turning to `[2H]C([2H])(Nc1nc(C)c(-c2nc3ccccc3s2)c(N[C@@H]2C[C@H](CO)[C@@H](O)[C@H]2O)n1)C(F)(F)F` [Example 1250], the EC90 was 0.5 to 5 µM. For the compound `Cc1nc(NCC2CC2)nc(N[C@@H]2C[C@H](CO)C[C@H]2O)c1-c1nc2ccccc2s1` [Example 1251], the EC90 is 0.5 to 5 µM.

Source of the values: US8697694B2, “Substituted pyridine and pyrimidine derivatives and their use in treating viral infections” (priority 2008, dated 2014).
